The values that follow come from patent publication US20250195521A1 (Revolution Medicines, Inc., priority 2020, published 2025).

Common to all, as to format: cell-based, human
The subject of experiment [1] is NCI-H358 (K-Ras G12C). Briefly: CellTiter-Glo cell viability assay, H358. How it is done:
Note—The following protocol describes a procedure for monitoring cell viability of K-Ras mutant cancer cell lines in response to a compound of the invention. Other RAS isoforms may be employed, though the number of cells to be seeded will vary based on cell line used.
Test compounds (132.5 nL) were directly dispensed into the assay plates containing cells. […] On day 5, assay plates and their contents were equilibrated to room temperature for approximately 30 minutes. […] Luminescence was measured using the PerkinElmer Enspire. Data were normalized by the following: (Sample signal/Avg. DMSO)*100. The data were fit using a four-parameter logistic fit.
A general note: In ATP-based viability assays light output follows the ATP content of the culture.

In experiment [2] the test system is AsPC-1 (K-Ras G12D). Briefly: Potency assay: pERK. The procedure, abridged: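 pERK decrease measured after 4 h compound treatment at 37 °C (10 three-fold dilutions, duplicate wells), by either fixed-cell In-Cell Western with DRAQ5 counterstain or AlphaLISA on lysates. Signal fitted against log concentration with a four-parameter model to give IC50.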
Experiment [3] has as its system AsPC-1 (K-Ras G12D). Briefly: CellTiter-Glo cell viability assay, AsPC-1. Conditions: Homo sapiens, ASPC1, 120 h, read-out: AsPC-1 Cell Viability IC50. The essentials:
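Viability measured by CellTiter-Glo luminescence on day 5 following direct addition of compound to plated cells. Values expressed as percent of mean DMSO signal; curves fitted with a four-parameter logistic model.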

[4] abbreviates: Homo sapiens, NCI-H358, 120 h, read-out: H358 Cell Viability IC50, K-Ras G12C, 5-day treatment.
[5] abbreviates: Homo sapiens, ASPC1, read-out: pERK EC50.

Read-outs that look alike come from different tables or passages of the source. A value given as a limit tells only on which side of the number the result lay.

A word on the IC50: it is the concentration that inhibits the measured activity by half. By EC50 is commonly meant the concentration needed to bring the measured effect to its halfway point.

In the case of `CCn1c(-c2cccnc2[C@H](C)OC)c2c3cc(ccc31)-c1cc(O)cc(c1)C[C@H](NC(=O)[C@H](C(C)C)N(C)C(=O)CN(C)C(=O)[C@@H]1N[C@@H]1C1CC1)C(=O)N1CCC[C@H](N1)C(=O)OCC(C)(C)C2` [Example 133, (2R,3R)-3-cyclopropyl-N-(2-(((2S)-1-(((6^3S,4S)-1^1-ethyl-25-hydroxy-1^2-(2-((S)-1-methoxyethyl)pyridin-3-yl)-10,10-dimethyl-5,7-dioxo-61,62,63,64,65,66-hexahydro-1^1H-8-oxa-1 (5,3)-indola-6 (1,3)-pyridazina-2 (1,3)-benzenacycloundecaphane-4-yl)amino)-3-methyl-1-oxobutan-2-yl) (methyl)amino)-2-oxoethyl)-N-methylaziridine-2-carboxamide], the IC50 in experiment [1] (setting [4]) and in experiment [3] was 10 to 100 nM in each case. Also, the EC50 in experiment [2] (setting [5]) is less than 5000 nM.
For `CCn1c(-c2cnccc2COC)c2c3cc(ccc31)-c1cc(O)cc(c1)C[C@H](NC(=O)[C@H](C(C)C)N(C)C(=O)CN(C)C(=O)[C@H]1CN1Cc1ccccc1)C(=O)N1CCC[C@H](N1)C(=O)OCC(C)(C)C2` (stereo partly drawn) [Example 9], the IC50 fell in the range of 10 to 100 nM in experiment [1] (setting [4]) and 1000 to 10000 nM in experiment [3]. Moreover, in experiment [2] (setting [5]), the EC50 is less than 5000 nM.
Turning to `CCn1c(-c2cccnc2[C@H](C)OC)c2c3cc(ccc31)-c1cc(O)cc(c1)C[C@H](NC(=O)[C@H](C(C)C)N(C)C(=O)CN(C)C(=O)[C@]1(C)CN1)C(=O)N1CCC[C@H](N1)C(=O)OCC(C)(C)C2` [Example 257], the results for the IC50 in experiment [1] (setting [4]) and in experiment [3] were 10 to 100 nM and 100 to 1000 nM, respectively. The EC50 in experiment [2] (setting [5]) is less than 5000 nM.
Turning to `CCn1c(-c2cc(N3CCN(C)CC3)cnc2[C@H](C)OC)c2c3cc(ccc31)-c1cc(O)cc(c1)C[C@H](NC(=O)[C@H](C1CCCC1)N(C)C(=O)CN(C)C(=O)[C@H]1CN1)C(=O)N1CCC[C@H](N1)C(=O)OCC(C)(C)C2` [Example 209, (2R)—N-(2-(((1S)-1-cyclopentyl-2-(((6^3S,4S)-1^1-ethyl-25-hydroxy-12-(2-((S)-1-methoxyethyl)-5-(4-methylpiperazin-1-yl)pyridin-3-yl)-10,10-dimethyl-5,7-dioxo-6^1,6^2,6^3,6^4,6^5,6^6-hexahydro-1^1H-8-oxa-1 (5,3)-indola-6 (1,3)-pyridazina-2 (1,3)-benzenacycloundecaphane-4-yl)amino)-2-oxoethyl) (methyl)amino)-2-oxoethyl)-N-methylaziridine-2-carboxamide], the IC50 in experiment [1] (setting [4]) and in experiment [3] was less than 10 nM in each case. For the same compound, the EC50 in experiment [2] (setting [5]) is less than 5000 nM.
For `CCn1c(-c2cccnc2[C@H](C)OC)c2c3cc(ccc31)-c1cc(O)cc(c1)C[C@H](NC(=O)[C@H](C(C)C)N(C)C(=O)CN(C)C(=O)[C@@H]1CN1CCOC)C(=O)N1CCC[C@H](N1)C(=O)OCC(C)(C)C2` (stereo partly drawn) [Example 160], the IC50 in experiment [1] (setting [4]) was less than 10 nM; in experiment [3], 100 to 1000 nM. The half-maximal effective concentration (EC50) in experiment [2] (setting [5]) is less than 5000 nM.
`CCn1c(-c2cccnc2[C@H](C)OC)c2c3cc(ccc31)-c1cc(O)cc(c1)C[C@H](NC(=O)[C@H](C(C)C)N(C)C(=O)CN(C)C(=O)[C@H]1CN1CCCC#N)C(=O)N1CCC[C@H](N1)C(=O)OCC(C)(C)C2` (stereo partly drawn) [Example 273]: the IC50 in experiment [1] (setting [4]) is less than 10 nM; in experiment [3] it was 100 to 1000 nM. Besides, the half-maximal effective concentration (EC50) in experiment [2] (setting [5]) is less than 5000 nM.
As to `CCn1c(-c2cccnc2[C@H](C)OC)c2c3cc(ccc31)-c1cc(O)cc(c1)C[C@H](NC(=O)[C@H](C(C)C)N(C)C(=O)CN(C)C(=O)[C@H]1N[C@H]1C(F)(F)F)C(=O)N1CCC[C@H](N1)C(=O)OCC(C)(C)C2` [Example 259], the IC50 in experiment [1] (setting [4]) was 10 to 100 nM; in experiment [3], 100 to 1000 nM. Moreover, the EC50 in experiment [2] (setting [5]) was less than 5000 nM.
For `CCn1c(-c2cccnc2[C@H](C)OC)c2c3cc(ccc31)-c1cc(O)cc(c1)C[C@H](NC(=O)[C@H](C(C)C)N(C)C(=O)CN(C)C(=O)[C@@H]1CN1C(C)C)C(=O)N1CCC[C@H](N1)C(=O)OCC(C)(C)C2` (stereo partly drawn) [Example 148] the same measures were less than 10 nM, 100 to 1000 nM and less than 5000 nM.
For `CCn1c(-c2cccnc2[C@H](C)OC)c2c3cc(ccc31)-c1cc(O)cc(c1)C[C@H](NC(=O)[C@H](C(C)C)N(C)C(=O)CN(C)C(=O)[C@H]1CN1Cc1ccccc1F)C(=O)N1CCC[C@H](N1)C(=O)OCC(C)(C)C2` (stereo partly drawn) [Example 155] the same measures were less than 10 nM, 100 to 1000 nM and less than 5000 nM.
On to `CCn1c(-c2cccnc2[C@H](C)OC)c2c3cc(ccc31)-c1cc(O)cc(c1)C[C@H](NC(=O)[C@H](C(C)C)N(C)C(=O)CN(C)C(=O)[C@H]1CN1CC(=O)N(C)C)C(=O)N1CCC[C@H](N1)C(=O)OCC(C)(C)C2` (stereo partly drawn) [Example 270], for which the IC50 fell in the range of 10 to 100 nM in experiment [1] (setting [4]) and 100 to 1000 nM in experiment [3]. The EC50 in experiment [2] (setting [5]) was less than 5000 nM.
On to `CCn1c(-c2cccnc2[C@H](C)OC)c2c3cc(ccc31)-c1cc(O)cc(c1)C[C@H](NC(=O)[C@H](C(C)C)N(C)C(=O)CN(C)C(=O)[C@@H]1CN1CCCC#N)C(=O)N1CCC[C@H](N1)C(=O)OCC(C)(C)C2` (stereo partly drawn) [Example 274], for which the values for the IC50 in experiment [1] (setting [4]) and in experiment [3] were less than 10 nM and 100 to 1000 nM, respectively. In addition, the EC50 in experiment [2] (setting [5]) was less than 5000 nM.
In the same order, the values of `CCn1c(-c2cccnc2[C@H](C)OC)c2c3cc(ccc31)-c1cc(O)cc(c1)C[C@H](NC(=O)[C@H](C(C)C)N(C)C(=O)CN(C)C(=O)[C@H]1CN1CCCOC)C(=O)N1CCC[C@H](N1)C(=O)OCC(C)(C)C2` (stereo partly drawn) [Example 201] are less than 10 nM, 100 to 1000 nM and less than 5000 nM.
Consider `CCn1c(-c2cccnc2[C@H](C)OC)c2c3cc(ccc31)-c1cc(O)cc(c1)C[C@H](NC(=O)[C@H](C(C)C)N(C)C(=O)CN(C)C(=O)[C@H]1CN1CCOC)C(=O)N1CCC[C@H](N1)C(=O)OCC(C)(C)C2` (stereo partly drawn) [Example 159], for which the IC50 in experiment [1] (setting [4]) was less than 10 nM; in experiment [3], 100 to 1000 nM. The EC50 in experiment [2] (setting [5]) is less than 5000 nM.
For `CCn1c(-c2cccnc2[C@H](C)OC)c2c3cc(ccc31)-c1cc(O)cc(c1)C[C@H](NC(=O)[C@H](C(C)C)N(C)C(=O)CN(C)C(=O)[C@@H]1N[C@@H]1C1CCC1)C(=O)N1CCC[C@H](N1)C(=O)OCC(C)(C)C2` [Example 287] the same measures were 10 to 100 nM, 100 to 1000 nM and less than 5000 nM.
For `CC[C@@H]1N[C@@H]1C(=O)N(C)CC(=O)N(C)[C@H](C(=O)N[C@H]1Cc2cc(O)cc(c2)-c2ccc3c(c2)c(c(-c2cccnc2[C@H](C)OC)n3CC)CC(C)(C)COC(=O)[C@@H]2CCCN(N2)C1=O)C(C)C` [Example 263] the same measures were 10 to 100 nM, 100 to 1000 nM and less than 5000 nM.
As for `CCn1c(-c2cccnc2[C@H](C)OC)c2c3cc(ccc31)-c1cc(O)cc(c1)C[C@H](NC(=O)[C@H](C(C)C)N(C)C(=O)CN(C)C(=O)[C@H]1N[C@@H]1C1CC1)C(=O)N1CCC[C@H](N1)C(=O)OCC(C)(C)C2` [Example 135], the IC50 lay in the range of 10 to 100 nM in experiment [1] (read-out: H358 Cell Viability IC50, K-Ras G12C, 5-day treatment) and 100 to 1000 nM in experiment [3]. For the same compound, in experiment [2] (read-out: pERK EC50, AsPC-1 KRAS G12D), the EC50 was less than 5000 nM.
As for `CCn1c(-c2cnccc2COC)c2c3cc(ccc31)-c1cc(O)cc(c1)C[C@H](NC(=O)[C@H](C(C)C)N(C)C(=O)CN(C)C(=O)[C@H]1CN1)C(=O)N1CCC[C@H](N1)C(=O)OCC(C)(C)C2` [Example 7, (2R)—N-(2-(((2S)-1-(((6^3S,4S)-1^1-ethyl-25-hydroxy-1^2-(4-(methoxymethyl)pyridin-3-yl)-10,10-dimethyl-5,7-dioxo-6^1,6^2,6^3,6^4,6^5,6^6-hexahydro-1^1H-8-oxa-1 (5,3)-indola-6 (1,3)-pyridazina-2 (1,3)-benzenacycloundecaphane-4-yl)amino)-3-methyl-1-oxobutan-2-yl) (methyl)amino)-2-oxoethyl)-N-methylaziridine-2-carboxamide], the IC50 lay within 10 to 100 nM in experiment [1] (setting [4]) and 100 to 1000 nM in experiment [3]. Moreover, the EC50 in experiment [2] (setting [5]) is less than 5000 nM.
For `CCn1c(-c2cccnc2[C@H](C)OC)c2c3cc(ccc31)-c1cc(O)cc(c1)C[C@H](NC(=O)[C@H](C(C)C)N(C)C(=O)CN(C)C(=O)[C@H]1N[C@H]1C(C)C)C(=O)N1CCC[C@H](N1)C(=O)OCC(C)(C)C2` [Example 265] the same measures were 10 to 100 nM, 100 to 1000 nM and less than 5000 nM.
As for `CCn1c(-c2cccnc2[C@H](C)OC)c2c3cc(ccc31)-c1cc(O)cc(c1)C[C@H](NC(=O)[C@H](C(C)C)N(C)C(=O)CN(C)C(=O)[C@@H]1N[C@@H]1C(C)C)C(=O)N1CCC[C@H](N1)C(=O)OCC(C)(C)C2` [Example 264], the IC50 in experiment [1] (setting [4]) is 10 to 100 nM; in experiment [3], 100 to 1000 nM. Further, the concentration giving a half-maximal response (EC50) in experiment [2] (setting [5]) was less than 5000 nM.
In the same order, the values of `CCn1c(-c2cccnc2[C@H](C)OC)c2c3cc(ccc31)-c1cc(O)cc(c1)C[C@H](NC(=O)[C@H](C(C)C)N(C)C(=O)CN(C)C(=O)[C@@H]1CN1CCCOC)C(=O)N1CCC[C@H](N1)C(=O)OCC(C)(C)C2` (stereo partly drawn) [Example 137] are less than 10 nM, 100 to 1000 nM and less than 5000 nM.
As for `CCn1c(-c2cccnc2[C@H](C)OC)c2c3cc(ccc31)-c1cc(O)cc(c1)C[C@H](NC(=O)[C@H](C(C)C)N(C)C(=O)CN(C)C(=O)C1CN1CCOC)C(=O)N1CCC[C@H](N1)C(=O)OCC(C)(C)C2` (stereo partly drawn) [Example 90], the 50% inhibitory concentration (IC50) in experiment [1] (setting [4]) is less than 10 nM; in experiment [3] it was 100 to 1000 nM. Also, the concentration for a half-maximal effect (EC50) in experiment [2] (setting [5]) is less than 5000 nM.
